Experimental data reported in the supplement of paper PMC4862054.

What was measured:
Experiment in all cases: normalised viability (% of control), CellTiter-Blue; higher = more viable cells (about 100 = DMSO control)
Details in all cases: incubation time: 72 h
HDQ-P1 [1] = tested on: HDQ-P1
Experimental: (§1)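 DSRT, CellTiter-Blue viability, 72 h incubation. Signal is normalised to DMSO and benzethonium chloride controls. Value is the normalised response at dose 8.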

DU-4475 [2] = tested on: DU-4475
Experimental: as §1

CAL-85-1 [3] = tested on: CAL-85-1
Experimental: as §1

MDA-MB-453 [4] = tested on: MDA-MB-453
Experimental: as §1

CAL-51 [5] = tested on: CAL-51
Experimental: as §1

CAL-148 [6] = tested on: CAL-148
Experimental: as §1

HDQ-P1 [7] = tested on: HDQ-P1; remark: listed apart in the source
Experimental: (§2)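 DSRT, CellTiter-Blue viability, 72 h incubation. Signal is normalised to DMSO and benzethonium chloride controls. Value is the normalised response at dose 6.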

DU-4475 [8] = tested on: DU-4475; remark: listed apart in the source
Experimental: as §2

CAL-85-1 [9] = tested on: CAL-85-1; remark: listed apart in the source
Experimental: as §2

MDA-MB-453 [10] = tested on: MDA-MB-453; remark: listed apart in the source
Experimental: as §2

CAL-51 [11] = tested on: CAL-51; remark: listed apart in the source
Experimental: as §2

CAL-148 [12] = tested on: CAL-148; remark: listed apart in the source
Experimental: as §2

SMILES: COc1cccc2cc(-c3nc([C@H]4CC[C@H](C(=O)O)CC4)n4ncnc(N)c34)[nH]c12 [OSI-027] (3000 nM)
- normalised viability (HDQ-P1 [1]): 31.1%
- normalised viability (DU-4475 [2]): 69.1%
- normalised viability (CAL-85-1 [3]): 32.9%
- normalised viability (MDA-MB-453 [4]): 19.9%
- normalised viability (CAL-51 [5]): 42.9%
- normalised viability (CAL-148 [6]): 46.4%

SMILES: OC[C@H]1O[C@@H](n2cnc3c2N=CNC[C@H]3O)C[C@@H]1O [Pentostatin] (300 nM)
- normalised viability (HDQ-P1 [7]): 82.3%
- normalised viability (DU-4475 [8]): 93.1%
- normalised viability (CAL-85-1 [9]): 97.8%
- normalised viability (MDA-MB-453 [10]): 108%
- normalised viability (CAL-51 [11]): 94.3%
- normalised viability (CAL-148 [12]): 111%

SMILES: OC[C@H]1O[C@@H](n2cnc3c2N=CNC[C@H]3O)C[C@@H]1O [Pentostatin] (3000 nM)
- normalised viability (HDQ-P1 [1]): 96.8%
- normalised viability (DU-4475 [2]): 90.9%
- normalised viability (CAL-85-1 [3]): 96.4%
- normalised viability (MDA-MB-453 [4]): 96.8%
- normalised viability (CAL-51 [5]): 95.8%
- normalised viability (CAL-148 [6]): 112%

SMILES: N#CC[C@H](C1CCCC1)n1cc(-c2ncnc3[nH]ccc23)cn1 [Ruxolitinib] (300 nM)
- normalised viability (HDQ-P1 [7]): 73.3%
- normalised viability (DU-4475 [8]): 114%
- normalised viability (CAL-85-1 [9]): 92%
- normalised viability (MDA-MB-453 [10]): 78.4%
- normalised viability (CAL-51 [11]): 86.7%
- normalised viability (CAL-148 [12]): 95.1%

SMILES: N#CC[C@H](C1CCCC1)n1cc(-c2ncnc3[nH]ccc23)cn1 [Ruxolitinib] (3000 nM)
- normalised viability (HDQ-P1 [1]): 105%
- normalised viability (DU-4475 [2]): 114%
- normalised viability (CAL-85-1 [3]): 114%
- normalised viability (MDA-MB-453 [4]): 94%
- normalised viability (CAL-51 [5]): 105%
- normalised viability (CAL-148 [6]): 87.7%

SMILES: C=CC[C@@H]1/C=C(\C)C[C@H](C)C[C@H](OC)[C@H]2O[C@@](O)(C(=O)C(=O)N3CCCC[C@H]3C(=O)O[C@H](/C(C)=C/[C@@H]3CC[C@@H](O)[C@H](OC)C3)[C@H](C)[C@@H](O)CC1=O)[C@H](C)C[C@@H]2OC [Tacrolimus] (300 nM)
- normalised viability (HDQ-P1 [7]): 119%
- normalised viability (DU-4475 [8]): 99.6%
- normalised viability (CAL-85-1 [9]): 101%
- normalised viability (MDA-MB-453 [10]): 111%
- normalised viability (CAL-51 [11]): 103%
- normalised viability (CAL-148 [12]): 106%

SMILES: C=CC[C@@H]1/C=C(\C)C[C@H](C)C[C@H](OC)[C@H]2O[C@@](O)(C(=O)C(=O)N3CCCC[C@H]3C(=O)O[C@H](/C(C)=C/[C@@H]3CC[C@@H](O)[C@H](OC)C3)[C@H](C)[C@@H](O)CC1=O)[C@H](C)C[C@@H]2OC [Tacrolimus] (3000 nM)
- normalised viability (HDQ-P1 [1]): 116%
- normalised viability (DU-4475 [2]): 121%
- normalised viability (CAL-85-1 [3]): 100%
- normalised viability (MDA-MB-453 [4]): 102%
- normalised viability (CAL-51 [5]): 99.2%
- normalised viability (CAL-148 [6]): 99.2%

SMILES: C=CCNC1=C2C[C@@H](C)C[C@H](OC)[C@H](O)[C@@H](C)/C=C(\C)[C@H](OC(N)=O)[C@@H](OC)/C=C\C=C(/C)C(=O)NC(=CC1=O)C2=O [Tanespimycin] (300 nM)
- normalised viability (HDQ-P1 [7]): 28.8%
- normalised viability (DU-4475 [8]): 1.35%
- normalised viability (CAL-85-1 [9]): 47.2%
- normalised viability (MDA-MB-453 [10]): 8.64%
- normalised viability (CAL-51 [11]): 48.2%
- normalised viability (CAL-148 [12]): 19.7%

SMILES: C=CCNC1=C2C[C@@H](C)C[C@H](OC)[C@H](O)[C@@H](C)/C=C(\C)[C@H](OC(N)=O)[C@@H](OC)/C=C\C=C(/C)C(=O)NC(=CC1=O)C2=O [Tanespimycin] (3000 nM)
- normalised viability (HDQ-P1 [1]): 24.7%
- normalised viability (DU-4475 [2]): 0.57%
- normalised viability (CAL-85-1 [3]): 23%
- normalised viability (MDA-MB-453 [4]): 8.29%
- normalised viability (CAL-51 [5]): 11.3%
- normalised viability (CAL-148 [6]): 17.2%

SMILES: CO[C@H]1C[C@@H]2CC[C@@H](C)[C@@](O)(O2)C(=O)C(=O)N2CCCC[C@H]2C(=O)O[C@H]([C@H](C)C[C@@H]2CC[C@@H](OC(=O)C(C)(CO)CO)[C@H](OC)C2)CC(=O)[C@H](C)/C=C(\C)[C@@H](O)[C@@H](OC)C(=O)[C@H](C)C[C@H](C)/C=C/C=C/C=C/1C [Temsirolimus] (30 nM)
- normalised viability (HDQ-P1 [7]): 58.3%
- normalised viability (DU-4475 [8]): 54.4%
- normalised viability (CAL-85-1 [9]): 56.3%
- normalised viability (MDA-MB-453 [10]): 30.1%
- normalised viability (CAL-51 [11]): 41.8%
- normalised viability (CAL-148 [12]): 40.4%

SMILES: CO[C@H]1C[C@@H]2CC[C@@H](C)[C@@](O)(O2)C(=O)C(=O)N2CCCC[C@H]2C(=O)O[C@H]([C@H](C)C[C@@H]2CC[C@@H](OC(=O)C(C)(CO)CO)[C@H](OC)C2)CC(=O)[C@H](C)/C=C(\C)[C@@H](O)[C@@H](OC)C(=O)[C@H](C)C[C@H](C)/C=C/C=C/C=C/1C [Temsirolimus] (300 nM)
- normalised viability (HDQ-P1 [1]): 69.1%
- normalised viability (DU-4475 [2]): 50.3%
- normalised viability (CAL-85-1 [3]): 57.4%
- normalised viability (MDA-MB-453 [4]): 26.2%
- normalised viability (CAL-51 [5]): 37.2%
- normalised viability (CAL-148 [6]): 33.7%

SMILES: C[C@]1(c2nc3c(C(N)=O)cccc3[nH]2)CCCN1 [Veliparib] (300 nM)
- normalised viability (HDQ-P1 [7]): 65.5%
- normalised viability (DU-4475 [8]): 89.9%
- normalised viability (CAL-85-1 [9]): 85.2%
- normalised viability (MDA-MB-453 [10]): 101%
- normalised viability (CAL-51 [11]): 105%
- normalised viability (CAL-148 [12]): 100%

SMILES: C[C@]1(c2nc3c(C(N)=O)cccc3[nH]2)CCCN1 [Veliparib] (3000 nM)
- normalised viability (HDQ-P1 [1]): 82.9%
- normalised viability (DU-4475 [2]): 86.2%
- normalised viability (CAL-85-1 [3]): 92.2%
- normalised viability (MDA-MB-453 [4]): 109%
- normalised viability (CAL-51 [5]): 108%
- normalised viability (CAL-148 [6]): 91.8%

SMILES: CC[C@]1(O)C[C@@H]2CN(CCc3c([nH]c4ccccc34)[C@@](C(=O)OC)(c3cc4c(cc3OC)N(C)[C@H]3[C@@](O)(C(=O)OC)[C@H](OC(C)=O)[C@]5(CC)C=CCN6CC[C@]43[C@@H]65)C2)C1 [Vinblastine] (30 nM)
- normalised viability (HDQ-P1 [7]): 31.5%
- normalised viability (DU-4475 [8]): 67.4%
- normalised viability (CAL-85-1 [9]): 36.2%
- normalised viability (MDA-MB-453 [10]): 29.1%
- normalised viability (CAL-51 [11]): 49.7%
- normalised viability (CAL-148 [12]): 17.2%

SMILES: CC[C@]1(O)C[C@@H]2CN(CCc3c([nH]c4ccccc34)[C@@](C(=O)OC)(c3cc4c(cc3OC)N(C)[C@H]3[C@@](O)(C(=O)OC)[C@H](OC(C)=O)[C@]5(CC)C=CCN6CC[C@]43[C@@H]65)C2)C1 [Vinblastine] (300 nM)
- normalised viability (HDQ-P1 [1]): 33.5%
- normalised viability (DU-4475 [2]): 20.9%
- normalised viability (CAL-85-1 [3]): 30.8%
- normalised viability (MDA-MB-453 [4]): 24.4%
- normalised viability (CAL-51 [5]): 16.9%
- normalised viability (CAL-148 [6]): 17.7%

SMILES: CS(=O)(=O)c1ccc(C(=O)Nc2ccc(Cl)c(-c3ccccn3)c2)c(Cl)c1 [Vismodegib] (300 nM)
- normalised viability (HDQ-P1 [7]): 44%
- normalised viability (DU-4475 [8]): 102%
- normalised viability (CAL-85-1 [9]): 95.7%
- normalised viability (MDA-MB-453 [10]): 102%
- normalised viability (CAL-51 [11]): 106%
- normalised viability (CAL-148 [12]): 81.3%

SMILES: CS(=O)(=O)c1ccc(C(=O)Nc2ccc(Cl)c(-c3ccccn3)c2)c(Cl)c1 [Vismodegib] (3000 nM)
- normalised viability (HDQ-P1 [1]): 103%
- normalised viability (DU-4475 [2]): 112%
- normalised viability (CAL-85-1 [3]): 96.4%
- normalised viability (MDA-MB-453 [4]): 95%
- normalised viability (CAL-51 [5]): 108%
- normalised viability (CAL-148 [6]): 83.3%
